{
  "source": "patent US20260355196A1",
  "about": "“INHIBITORS AND DEGRADERS OF PIP4K PROTEIN” (Larkspur Biosciences, Inc., priority 2023, published 2026)",
  "data": [
    {"biological_target": "T1, PIP4K2C (Homo sapiens, UniProt Q8TBX8)", "T1 sequence (Q8TBX8 1-421)": "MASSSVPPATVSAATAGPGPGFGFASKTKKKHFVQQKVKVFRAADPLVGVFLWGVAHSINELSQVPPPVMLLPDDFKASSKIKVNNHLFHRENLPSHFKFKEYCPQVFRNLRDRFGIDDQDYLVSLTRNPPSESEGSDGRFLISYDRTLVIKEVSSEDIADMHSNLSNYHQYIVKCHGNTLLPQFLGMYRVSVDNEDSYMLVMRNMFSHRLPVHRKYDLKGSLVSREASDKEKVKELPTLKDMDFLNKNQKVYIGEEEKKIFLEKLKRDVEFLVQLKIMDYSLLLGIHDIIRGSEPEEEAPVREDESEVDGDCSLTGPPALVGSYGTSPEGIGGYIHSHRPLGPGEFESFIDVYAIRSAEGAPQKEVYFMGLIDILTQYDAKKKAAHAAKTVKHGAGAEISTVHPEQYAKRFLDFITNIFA", "experiment": "HiBiT PIP4K2C degradation assay in MOLT-4 cells (endogenous PIP4K2C C-terminally tagged with HiBiT)", "format": "cell-based", "set-up": "untagged in primary human PBMCs and monocyte-derived dendritic cells", "settings": "6 hours of incubation time, rather than 24 hours; MOLT-4, top concentration 10 micromolar; read-out: HiBIT-degradation MOLT4 PIP4k2C DC50 (6 hours, marked *)", "outline": "(§1)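 Luminescent HiBiT lytic readout of residual PIP4K2C-HiBiT (CRISPR knock-in, MOLT-4, phenol red-free RPMI-1640 + 10% FBS). Cells exposed 6 or 24 h at 37 C to compound, top 10 micromolar, 3-fold, 10 points, duplicate. Hill fit (Levenberg-Marquardt) gives DC50.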", "units": {"DC50": "nM"}, "values": [
      {"smiles": "O=C1CCC(Nc2ccc(N3CCC(N4CCN(C(=O)O[C@H]5CC[C@H](Nc6ncc(F)c(-c7cccc(-n8ccccc8=O)c7)n6)CC5)CC4)C(F)C3)c(F)c2)C(=O)N1", "note": "(stereo partly drawn) [Compound 668, trans-[4-[[5-fluoro-4-[3-(2-oxo-1-pyridyl)phenyl]pyrimidin-2-yl]amino]cyclohexyl]4-[1-[4-[(2,6-dioxo-3-piperidyl)amino]-2-fluoro-phenyl]-3-fluoro-4-piperidyl]piperazine-1-carboxylate]", "DC50": "> 5000"},
      {"smiles": "O=C1CCC(Nc2ccc(N3CCC(N4CCC(NC(=O)[C@H]5CC[C@H](Nc6ncc(F)c(-c7cccc(N8CCCOC8=O)c7)n6)CC5)CC4)C(F)(F)C3)c(F)c2)C(=O)N1", "note": "(stereo partly drawn) [Compound 495, trans-N-(1′-(4-((2,6-dioxopiperidin-3-yl)amino)-2-fluorophenyl)-3′,3′-difluoro-[1,4′-bipiperidin]-4-yl)-4-((5-fluoro-4-(3-(2-oxo-1,3-oxazinan-3-yl)phenyl)pyrimidin-2-yl)amino)cyclohexane-1-carboxamide]", "DC50": "< 500"},
      {"smiles": "O=C1CCC(Nc2ccc(C3CCN([C@H]4CC[C@H](NC(=O)[C@H]5CC[C@H](Nc6ncc(F)c(-c7cccc(-n8ccccc8=O)c7)n6)CC5)CC4)CC3)c(F)c2)C(=O)N1", "note": "(stereo partly drawn) [Compound 401, trans-(1r,4R)—N-((1r,4R)-4-(4-(4-((2,6-dioxopiperidin-3-yl)amino)-2-fluorophenyl)piperidin-1-yl)cyclohexyl)-4-((5-fluoro-4-(3-(2-oxopyridin-1(2H)-yl)phenyl)pyrimidin-2-yl)amino)cyclohexane-1-carboxamide]", "DC50": "< 500"},
      {"smiles": "O=C1CCC(Nc2ccc(N3CCN([C@H]4CC[C@H](C(=O)N[C@H]5CC[C@H](Nc6ncc(Cl)c(-c7cccc(-n8ccccc8=O)c7)n6)CC5)CC4)CC3)c(F)c2)C(=O)N1", "note": "(stereo partly drawn) [Compound 632, trans-(1r,4R)—N-((1r,4R)-4-((5-chloro-4-(3-(2-oxopyridin-1 (2H)-yl)phenyl)pyrimidin-2-yl)amino)cyclohexyl)-4-(4-(4-((2,6-dioxopiperidin-3-yl)amino)-2-fluorophenyl)piperazin-1-yl)cyclohexane-1-carboxamide]", "DC50": "< 500"},
      {"smiles": "O=C1CCC(Nc2ccc(N3CCN(CC4CCN(C(=O)[C@H]5CC[C@H](Nc6ncc(F)c(-c7cccc(N8CCOCC8)c7)n6)CC5)CC4)CC3)c(F)c2)C(=O)N1", "note": "(stereo partly drawn) [Compound 686, trans-3-((3-fluoro-4-(4-((1-(4-((5-fluoro-4-(3-morpholinophenyl)pyrimidin-2-yl)amino)cyclohexane-1-carbonyl)piperidin-4-yl)methyl)piperazin-1-yl)phenyl)amino)piperidine-2,6-dione]", "DC50": "< 500"},
      {"smiles": "O=C1CC[C@H](Nc2ccc(N3CCN([C@H]4CC[C@H](C(=O)N[C@H]5CC[C@H](Nc6ncc(F)c(-c7cccc(N8CCCOC8=O)c7)n6)CC5)CC4)CC3)c(F)c2)C(=O)N1", "note": "(single isomer, unassigned) [Compound 462]", "DC50": "< 500"},
      {"smiles": "O=C1CC[C@@H](Nc2ccc(N3CCN(CC4(O)CCN(C(=O)[C@H]5CC[C@H](Nc6ncc(F)c(-c7cccc(-n8ccccc8=O)c7)n6)CC5)CC4)CC3)c(F)c2)C(=O)N1", "note": "(single isomer, unassigned) [Compound 439]", "DC50": "< 500"},
      {"smiles": "O=C1CCC(Nc2ccc(N3CCC(O)(CN4CCN(C(=O)[C@H]5CC[C@H](Nc6ncc(F)c(-c7cccc(-n8ccccc8=O)c7)n6)CC5)CC4)CC3)c(F)c2)C(=O)N1", "note": "(stereo partly drawn) [Compound 410, trans-3-((3-fluoro-4-(4-((4-(4-((5-fluoro-4-(3-(2-oxopyridin-1(2H)-yl)phenyl)pyrimidin-2-yl)amino)cyclohexane-1-carbonyl)piperazin-1-yl)methyl)-4-hydroxypiperidin-1-yl)phenyl)amino)piperidine-2,6-dione]", "DC50": "< 500"},
      {"smiles": "O=C1CCC(Nc2ccc(N3CCC(N4CC5(CC(C(=O)N[C@H]6CC[C@H](Nc7ncc(F)c(-c8cccc(-n9ccccc9=O)c8)n7)CC6)C5)C4)CC3)c(F)c2)C(=O)N1", "note": "(stereo partly drawn) [Compound 575, trans-2-(1-(4-((2,6-dioxopiperidin-3-yl)amino)-2-fluorophenyl)piperidin-4-yl)-N-((1r,4r)-4-((5-fluoro-4-(3-(2-oxopyridin-1(2H)-yl)phenyl)pyrimidin-2-yl)amino)cyclohexyl)-2-azaspiro[3.3]heptane-6-carboxamide]", "DC50": "< 500"},
      {"smiles": "O=C1CCC(Nc2ccc(N3CCN(CC4CCN(C(=O)[C@H]5CC[C@H](Nc6ncc(F)c(-c7cccc(N8CCCCC8)c7)n6)CC5)CC4)CC3)c(F)c2)C(=O)N1", "note": "(stereo partly drawn) [Compound 513, trans-3-((3-fluoro-4-(4-((1-(4-((5-fluoro-4-(3-(piperidin-1-yl)phenyl)pyrimidin-2-yl)amino)cyclohexane-1-carbonyl)piperidin-4-yl)methyl)piperazin-1-yl)phenyl)amino)piperidine-2,6-dione]", "DC50": "< 500"},
      {"smiles": "O=C1CCC(Nc2ccc(N3CCC(CN4CCN(C(=O)[C@H]5CC[C@H](Nc6ncc(F)c(-c7cccc(N8CCCCC8=O)c7)n6)CC5)CC4)CC3)c(F)c2)C(=O)N1", "note": "(stereo partly drawn) [Compound 415, trans-3-((3-fluoro-4-(4-((4-(4-((5-fluoro-4-(3-(2-oxopiperidin-1-yl)phenyl)pyrimidin-2-yl)amino)cyclohexane-1-carbonyl)piperazin-1-yl)methyl)piperidin-1-yl)phenyl)amino)piperidine-2,6-dione]", "DC50": "< 500"},
      {"smiles": "O=C1CC[C@@H](Nc2ccc(N3CCC(N4CCC(C(=O)N[C@H]5CC[C@H](Nc6ncc(F)c(-c7cccc(-c8ccc[nH]c8=O)c7)n6)CC5)CC4)CC3)c(F)c2)C(=O)N1", "note": "[Compound 577, trans-1′-(4-(((R)-2,6-dioxopiperidin-3-yl)amino)-2-fluorophenyl)-N-((1r,4r)-4-((5-fluoro-4-(3-(2-oxo-1,2-dihydropyridin-3-yl)phenyl)pyrimidin-2-yl)amino)cyclohexyl)-[1,4′-bipiperidine]-4-carboxamide]", "DC50": "> 5000"}
    ]},
    {"biological_target": "T1, PIP4K2C", "experiment": "HiBiT PIP4K2C degradation assay in MOLT-4 cells (endogenous PIP4K2C C-terminally tagged with HiBiT)", "format": "cell-based", "set-up": "untagged in primary human PBMCs and monocyte-derived dendritic cells", "settings": "24 hours incubation, MOLT-4, top concentration 10 micromolar; read-out: HiBIT-degradation MOLT4 PIP4k2C 24 hours DC50", "outline": "as §1", "units": {"DC50": "nM"}, "values": [
      {"smiles": "O=C1CCC(n2c(=O)oc3cc(C4CCN(CC5CCN(C(=O)CN6CCC(Nc7ncc(F)c(-c8cccc(-c9ccccc9)c8)n7)CC6=O)CC5)CC4)ccc32)C(=O)N1", "note": "(stereo not drawn) [Compound 366, 3-(6-(1-((1-(2-(4-((4-([1,1′-biphenyl]-3-yl)-5-fluoropyrimidin-2-yl)amino)-2-oxopiperidin-1-yl)acetyl)piperidin-4-yl)methyl)piperidin-4-yl)-2-oxobenzo[d]oxazol-3 (2H)-yl)piperidine-2,6-dione]", "DC50": "< 500"},
      {"smiles": "O=C1CCC(N2Cc3cc(C4CCN(CCN5CCC(C(=O)N6CCC(Nc7ncc(Cl)c(-c8cccc(-c9ccccc9)c8)n7)CC6)CC5)CC4)ccc3C2=O)C(=O)N1", "note": "(stereo not drawn) [Compound 88, 3-(5-(1-(2-(4-(4-((4-([1,1′-biphenyl]-3-yl)-5-chloropyrimidin-2-yl)amino)piperidine-1-carbonyl)piperidin-1-yl)ethyl)piperidin-4-yl)-1-oxoisoindolin-2-yl)piperidine-2,6-dione]", "DC50": "< 500"},
      {"smiles": "O=C1CCC(Nc2ccc(N3CCC(N4CCN(CCC(=O)N5CCC(Nc6ncc(Cl)c(-c7cccc(-c8ccccc8)c7)n6)CC5)CC4)CC3)cc2)C(=O)N1", "note": "(stereo not drawn) [Compound 84, 3-((4-(4-(4-(3-(4-((4-([1,1′-biphenyl]-3-yl)-5-chloropyrimidin-2-yl)amino)piperidin-1-yl)-3-oxopropyl)piperazin-1-yl)piperidin-1-yl)phenyl)amino)piperidine-2,6-dione]", "DC50": "< 500"},
      {"smiles": "O=C1CCC(n2c(=O)oc3cc(N4CCN(CC5CCN(CC(=O)N[C@H]6CC[C@H](Nc7ncc(F)c(-c8cccc(-n9ccccc9=O)c8)n7)CC6)CC5)CC4)ccc32)C(=O)N1", "note": "(stereo partly drawn) [Compound 339, trans-2-(4-((4-(3-(2,6-dioxopiperidin-3-yl)-2-oxo-2,3-dihydrobenzo[d]oxazol-6-yl)piperazin-1-yl)methyl)piperidin-1-yl)-N-(4-((5-fluoro-4-(3-(2-oxopyridin-1(2H)-yl)phenyl)pyrimidin-2-yl)amino)cyclohexyl)acetamide]", "DC50": "< 500"},
      {"smiles": "Cn1c(=O)n(C2CCC(=O)NC2=O)c2ccc(C3CCN(CCC4CCN(C(=O)[C@H]5CCC[C@@H](Nc6ncc(Cl)c(-c7cccc(-c8ccc(F)cc8)c7)n6)C5)CC4)CC3)cc21", "note": "(relative stereo) [Compound 279, cis-3-(5-(1-(2-(1-(3-((5-chloro-4-(4′-fluoro-[1,1′-biphenyl]-3-yl)pyrimidin-2-yl)amino)cyclohexane-1-carbonyl)piperidin-4-yl)ethyl)piperidin-4-yl)-3-methyl-2-oxo-2,3-dihydro-1H-benzo[d]imidazol-1-yl)piperidine-2,6-dione]", "DC50": "< 500"},
      {"smiles": "O=C1CCC(Nc2ccc(N3CCC(CCN4CCC(C(=O)N[C@H]5CC[C@H](Nc6ncc(F)c(-c7cccc(-n8ccccc8=O)c7)n6)CC5)CC4)CC3)c(F)c2)C(=O)N1", "note": "(stereo partly drawn) [Compound 316, trans-1-[2-[1-[4-[(2,6-dioxo-3-piperidyl)amino]-2-fluoro-phenyl]-4-piperidyl]ethyl]-N-[4-[[5-fluoro-4-[3-(2-oxo-1-pyridyl)phenyl]pyrimidin-2-yl]amino]cyclohexyl]piperidine-4-carboxamide]", "DC50": "< 500"}
    ]}
  ]
}
